The source of these data is patent publication US20240327415A1, “Multicomponent Complexes, Including Salts, Crystalline Forms, and Hydrates and Solvates of ENT1 Inhibitors” (iTeos Belgium SA, priority 2023, published 2024).

A short description of data set [1]: salt screen, XRPD of damp, dried and 40° C./75% RH stored samples (Salt Preparation Methods 1 and 2). The arrangement: key to XRPD Analysis Damp/Dry: A = amorphous; Evap. = isolated via evaporation. It counts as physicochemical. Particulars: for XRPD Analysis Damp/Dry: (evap.); for XRPD Analysis Damp / XRPD Analysis Dry: Ethyl acetate. As for the experimental part: (§1) Salt Preparation Method 1: Approximately 25 mg of Compound 1 (free base) was weighed out into 1.5 mL screw-cap vials and a stirrer bar was added. For solid counterions, the appropriate amount of acid (1.0 or 2.0 equiv.) was weighed into separate 1.5 mL screw-cap vials. 100 μL of the appropriate solvent system was added to both the Compound 1 and the solid counterions. Stock solutions of liquid counterions were prepared, such that 100 μL contained 1.0 or 2.0 equiv. of acid. See counterion and solvent lists in Table 60 and Table 61 respectively.
(§2) The samples were stirred at 40° C. for 5-10 min and then the acid solutions were added to Compound 1, rinsing out the transfer vial with a further 50 μL of solvent. […] Experiments were temperature cycled between 40° C. and 5° C. (1 h hold; 0.1° C./min ramp/cool) for ca. 24-68 h. Anti-solvent addition (ASA) was carried out to slurries at 5° C. then experiments were heated to 30° C. over 1 h. ASA was carried out at 30° C. or 40° C. where clear solutions or gums were observed.
(§3) Temperature cycling was then continued for ca. 16-69 h, followed by further ASA and temperature cycling if required. Material was isolated at 5° C. and analyzed damp by XRPD. All isolated material was dried under vacuum at ca. 40° C. for ca. 17-91 h then re-analyzed by XRPD. The XRPD plate was stored at 40° C./75% RH for 24-48 h and then samples re-analyzed. Solutions were stored uncapped at ambient temperature to evaporate. Any residual solids were analyzed by XRPD.
(§4) Salt Preparation Method 2: The general procedure adopted in preparing the potential salts is outlined below. A known mass of Compound 1 (free base) and a known volume of the appropriate solvent system were added to 20 mL scintillation vials. The required mol. equiv. of the appropriate counterions were added to the vials as solutions or slurries in the corresponding solvent system.
(§5) The experiments were stirred at 40° C. for ca. 1 h, and then temperature cycled between 40° C. and 5° C. with 0.1° C./min ramp and 1 h hold between each step. Anti-solvent additions and subsequent slurrying at 5° C. were employed in order to facilitate crystallization. […] The damp and dried solids were subsampled and analyzed by XRPD. Where applicable, the dried solids were stored at 40° C./75% RH for 24-48 h in order to improve the crystallinity and/or facilitate solid form conversion to the desired form.

Experiment in data set [2]: as above
Format: physicochemical. The arrangement: key: A = amorphous; Evap. = isolated via evaporation. The protocol: as §1, §2, §3, §4, §5

[3] abbreviates: Benzenesulfonic acid, 1 equiv., IPA:H2O (75:25% v/v), AS tBME.
Setting [4] is: Benzenesulfonic acid, 1 equiv., Acetonitrile, AS tBME.
The mark [5] stands for this setting: Benzenesulfonic acid, 1 equiv., Ethanol, AS Heptane.
[6] abbreviates: Benzenesulfonic acid, 1 equiv., Ethyl acetate, AS Heptane.
Where [7] appears, read: Benzenesulfonic acid, 1 equiv., MEK, AS Heptane.
Setting [8] is: Benzenesulfonic acid, 1 equiv., THF, AS Heptane.
Where [9] appears, read: p-Toluenesulfonic acid, 1 equiv., Ethanol, AS Heptane.
The mark [10] stands for this setting: p-Toluenesulfonic acid, 1 equiv., IPA:H2O (75:25% v/v), AS tBME.
[11] abbreviates: p-Toluenesulfonic acid, 1 equiv., Acetonitrile, AS tBME.
[12] abbreviates: p-Toluenesulfonic acid, 1 equiv., Ethyl acetate, AS Heptane.
The mark [13] stands for this setting: p-Toluenesulfonic acid, 1 equiv., MEK, AS Heptane.
The mark [14] stands for this setting: p-Toluenesulfonic acid, 1 equiv., THF, AS Heptane.
[15] abbreviates: L-Tartaric acid, 1 equiv., AS Heptane.
Where [16] appears, read: L-Tartaric acid, 1 equiv., Acetonitrile, AS tBME.
[17] abbreviates: L-Tartaric acid, 1 equiv., Ethanol, AS Heptane.
Setting [18] is: L-Tartaric acid, 1 equiv., IPA:H2O (75:25% v/v), AS tBME.
The mark [19] stands for this setting: L-Tartaric acid, 1 equiv., MEK, AS Heptane.
[20] abbreviates: L-Tartaric acid, 1 equiv., THF, AS Heptane.
The mark [21] stands for this setting: Methanesulfonic acid, 1 equiv., Ethanol, AS Heptane.
Where [22] appears, read: Methanesulfonic acid, 1 equiv., IPA:H2O (75:25% v/v), AS tBME.
[23] abbreviates: Methanesulfonic acid, 1 equiv., Acetonitrile, AS tBME.
Where [24] appears, read: Methanesulfonic acid, 1 equiv., Ethyl acetate, AS Heptane.
Where [25] appears, read: Methanesulfonic acid, 1 equiv., MEK, AS Heptane.
Setting [26] is: Methanesulfonic acid, 1 equiv., THF, AS Heptane.
Where [27] appears, read: p-Toluenesulfonic acid, 2 equiv., IPA:H2O (75:25% v/v), AS tBME.
The mark [28] stands for this setting: p-Toluenesulfonic acid, 2 equiv., Acetonitrile, AS tBME.
The mark [29] stands for this setting: p-Toluenesulfonic acid, 2 equiv., Ethanol, AS Heptane.
Setting [30] is: p-Toluenesulfonic acid, 2 equiv., Ethyl acetate, AS Heptane.
Setting [31] is: p-Toluenesulfonic acid, 2 equiv., MEK, AS Heptane.
Setting [32] is: p-Toluenesulfonic acid, 2 equiv., THF, AS Heptane.
[33] abbreviates: Maleic acid, 1 equiv., IPA:H2O (75:25% v/v), AS tBME.
Where [34] appears, read: Maleic acid, 1 equiv., Acetonitrile, AS tBME.
Setting [35] is: Maleic acid, 1 equiv., Ethanol, AS Heptane.
The mark [36] stands for this setting: Maleic acid, 1 equiv., Ethyl acetate, AS Heptane.
[37] abbreviates: Maleic acid, 1 equiv., MEK, AS Heptane.
Setting [38] is: Maleic acid, 1 equiv., THF, AS Heptane.
Where [39] appears, read: Citric acid, 1 equiv., AS Heptane.
[40] abbreviates: Citric acid, 1 equiv., Acetonitrile, AS tBME.
The mark [41] stands for this setting: Citric acid, 1 equiv., Ethanol, AS Heptane.
Where [42] appears, read: Citric acid, 1 equiv., IPA:H2O (75:25% v/v), AS tBME.
Setting [43] is: Citric acid, 1 equiv., MEK, AS Heptane.
[44] abbreviates: Citric acid, 1 equiv., THF, AS Heptane.

Take `O=S(=O)(O)c1ccccc1` [Benzenesulfonic acid, 1 equiv.]: in data set [1] (setting [3]), the “XRPD Analysis Damp/Dry” value is “A (evap.)”. Further, the “XRPD Analysis 40° C. 75% RH” value in data set [2] (setting [4]), in data set [2] (setting [5]), in data set [2] (setting [6]), in data set [2] (setting [3]), in data set [2] (setting [7]) and in data set [2] (setting [8]) was “A” in each case. The “XRPD Analysis Damp” value in data set [2] (setting [4]), in data set [2] (setting [5]), in data set [2] (setting [6]), in data set [2] (setting [7]) and in data set [2] (setting [8]) was “A” throughout. Besides, the “XRPD Analysis Dry” value in data set [2] (setting [4]), in data set [2] (setting [5]), in data set [2] (setting [6]), in data set [2] (setting [7]) and in data set [2] (setting [8]) was “A” each time.
In the case of `Cc1ccc(S(=O)(=O)O)cc1` [p-Toluenesulfonic acid, 1 equiv.], the “XRPD Analysis Damp/Dry” value in data set [1] (setting [9]) and in data set [1] (setting [10]) was “A (evap.)” each time. Besides, the “XRPD Analysis 40° C. 75% RH” value in data set [2] (setting [11]), in data set [2] (setting [9]), in data set [2] (setting [12]), in data set [2] (setting [10]), in data set [2] (setting [13]) and in data set [2] (setting [14]) was “A” in each case. Besides, the “XRPD Analysis Damp” value in data set [2] (setting [11]), in data set [2] (setting [12]), in data set [2] (setting [13]) and in data set [2] (setting [14]) was “A” in each case. Further, the “XRPD Analysis Dry” value in data set [2] (setting [11]), in data set [2] (setting [12]), in data set [2] (setting [13]) and in data set [2] (setting [14]) was “A” each time.
With `O=C(O)C(O)C(O)C(=O)O` [L-Tartaric acid, 1 equiv.], the “XRPD Analysis Damp” value in data set [1] (setting [15]) was “PC, CI”; in data set [2] (setting [16]) it was “A”; in data set [2] (setting [17]), “A”; in data set [2] (setting [18]), “A”; in data set [2] (setting [19]), “A”; in data set [2] (setting [20]), “A”. The “XRPD Analysis Dry” value in data set [1] (setting [15]) is “PC, CI”; in data set [2] (setting [16]), “A”; in data set [2] (setting [17]) it was “A”; in data set [2] (setting [18]), “A”; in data set [2] (setting [19]), “A”; in data set [2] (setting [20]), “A”. Besides, the “XRPD Analysis 40° C. 75% RH” value in data set [2] (setting [16]) is “A”; in data set [2] (setting [17]), “A”; in data set [2] (L-Tartaric acid, 1 equiv., Ethyl acetate, AS Heptane), “A”; in data set [2] (setting [18]), “A”; in data set [2] (setting [19]) it was “A”; in data set [2] (setting [20]), “A”.
For the molecule `CS(=O)(=O)O` [Methanesulfonic acid, 1 equiv.], the “XRPD Analysis Damp/Dry” value in data set [1] (setting [21]) and in data set [1] (setting [22]) was “A (evap.)” throughout. Besides, the “XRPD Analysis 40° C. 75% RH” value in data set [2] (setting [23]), in data set [2] (setting [21]), in data set [2] (setting [24]), in data set [2] (setting [22]), in data set [2] (setting [25]) and in data set [2] (setting [26]) was “A” throughout. For the same molecule, the “XRPD Analysis Damp” value in data set [2] (setting [23]), in data set [2] (setting [24]), in data set [2] (setting [25]) and in data set [2] (setting [26]) was “A” in each case. Further, the “XRPD Analysis Dry” value in data set [2] (setting [23]), in data set [2] (setting [24]), in data set [2] (setting [25]) and in data set [2] (setting [26]) was “A” throughout.
For `Cc1ccc(S(=O)(=O)O)cc1` [p-Toluenesulfonic acid, 2 equiv.], the “XRPD Analysis Damp/Dry” value in data set [1] (setting [27]) is “A (evap.)”. The “XRPD Analysis 40° C. 75% RH” value in data set [2] (setting [28]), in data set [2] (setting [29]), in data set [2] (setting [30]), in data set [2] (setting [27]), in data set [2] (setting [31]) and in data set [2] (setting [32]) was “A” each time. In addition, the “XRPD Analysis Damp” value in data set [2] (setting [28]), in data set [2] (setting [29]), in data set [2] (setting [30]), in data set [2] (setting [31]) and in data set [2] (setting [32]) was “A” each time. The “XRPD Analysis Dry” value in data set [2] (setting [28]), in data set [2] (setting [29]), in data set [2] (setting [30]), in data set [2] (setting [31]) and in data set [2] (setting [32]) was “A” in each case.
`O=C(O)/C=C\C(=O)O` [Maleic acid, 1 equiv.]: the “XRPD Analysis Damp/Dry” value in data set [1] (setting [33]) is “A (evap.)”. In addition, the “XRPD Analysis 40° C. 75% RH” value in data set [2] (setting [34]), in data set [2] (setting [35]), in data set [2] (setting [36]), in data set [2] (setting [33]), in data set [2] (setting [37]) and in data set [2] (setting [38]) was “A” each time. For the same molecule, the “XRPD Analysis Damp” value in data set [2] (setting [34]), in data set [2] (setting [35]), in data set [2] (setting [36]), in data set [2] (setting [37]) and in data set [2] (setting [38]) was “A” in each case. Besides, the “XRPD Analysis Dry” value in data set [2] (setting [34]), in data set [2] (setting [35]), in data set [2] (setting [36]), in data set [2] (setting [37]) and in data set [2] (setting [38]) was “A” throughout.
Consider `O=C(O)CC(O)(CC(=O)O)C(=O)O` [Citric acid, 1 equiv.], for which the “XRPD Analysis Damp” value in data set [1] (setting [39]) is listed as “PC, CI”; in data set [2] (setting [40]), “A”; in data set [2] (setting [41]) it was “A”; in data set [2] (setting [42]), “A”; in data set [2] (setting [43]) it was “A”; in data set [2] (setting [44]), “A”. Moreover, the “XRPD Analysis Dry” value in data set [1] (setting [39]) was “PC, CI”; in data set [2] (setting [40]) it was “A”; in data set [2] (setting [41]), “A”; in data set [2] (setting [42]), “A”; in data set [2] (setting [43]), “A”; in data set [2] (setting [44]), “A”. Besides, the “XRPD Analysis 40° C. 75% RH” value in data set [2] (setting [40]) was “A”; in data set [2] (setting [41]) it was “A”; in data set [2] (Citric acid, 1 equiv., Ethyl acetate, AS Heptane), “A”; in data set [2] (setting [42]) it was “A”; in data set [2] (setting [43]), “A”; in data set [2] (setting [44]), “A”.
